Results as given in patent publication US20100329994A1, “Use of Deuterium Dioxide for Treating Hyperproliferative Skin Diseases” (priority 2006, published 2010).

Tests used:
[1] = test system: normal human epithelial cell lines from the skin (TE 353.sk); assay: Proliferation rate (average cell-doubling rate) of normal human skin epithelial cell line in culture; settings: 30% D2O based on the complete medium, counted from 48 h then every 24 h for a week, 6 wells
Description: (§1) The influence of D2O and H2O on the proliferation rate of carcinoma cells and normal cells was investigated on cell cultures. For this purpose, human TE 354.T epithelial cell lines derived from the human basal-cell carcinoma (American Type Culture Collection (ATCC), Rockville, USA) were used. Normal human epithelial cell lines from the skin of the same individual (TE 353.sk from ATCC) were used as control. The cells were transferred into 96-well cell culture plates (10^4 cells per well) and allowed to grow to subconfluence. The medium used for this purpose was Dulbecco's modified Eagles medium (DMEM) to which 10% heat-deactivated fetal calf serum (LGC Promochem, Wesel, Germany) was added. The medium was changed, for the first time 2 days after introduction of the cells and then every 48 hours. At the subconfluent stage of the cell culture of the two cell lines, 30% D2O, based on the complete medium, was added to the medium. […] From these values, the average cell-doubling rate n was determined from the gradient of a graphical plot of log {cell count} vs. time in accordance with the equation n=3.32 (log Nt−log N0). Here, Nt is the cell count measured after time t, and N0 is the cell count determined at the time when D2O or H2O was added (zero point measurement). The average cell-doubling rate was determined by averaging the results over in each case 6 wells per time point.

[2] = test system: human TE 354.T epithelial cell lines derived from the human basal-cell carcinoma; assay: Proliferation rate (average cell-doubling rate) of human basal-cell carcinoma cell line in culture; format: cell-based
Description: as §1

[2H]O[2H] [D2O, deuterium dioxide]
average cell-doubling rate <n> D2O, normal cells [1]: 0.41 ± 0.04
reduction in <n> for the carcinoma cells compared with normal cells ([2]; 30% D2O added to medium, versus H2O): disproportionately large reduction
average cell-doubling rate <n> D2O, carcinoma cells ([2]; 30% D2O based on the complete medium, TE 354.T, counted from 48 h then every 24 h for a week, 6 wells): 0.23 ± 0.02
